Data: patent publication US8450270B2 (Indiana University Research and Technology Corporation, priority 2008, dated 2013)
Square brackets hold non-standard residues; d marks the D form. Ends that are not written are not given here. Peptide text beside a SMILES is read from it. Dab = NCC[C@H](N)C(=O)O; Aib = CC(C)(N)C(=O)O

Tests used:
[1] = Glucagon solubility assay; assay type: physicochemical
Glucagon Receptor = Glucagon Receptor (Homo sapiens, UniProt P47871); assay: Functional assay-cAMP synthesis (luciferase reporter, HEK293), glucagon receptor; details: for % activity*: glucagon receptor
Excerpt: (§1) The luminescent light output indicates activation of the luciferase reporter gene, which in turn is a measure of the activation of the receptor.

GLP-1 Receptor = GLP-1 Receptor (Homo sapiens, UniProt P43220); assay: Functional assay-cAMP synthesis (luciferase reporter, HEK293), GLP-1 receptor
Excerpt: as §1

[2] = Table 8, wildtype glucagon = 100

Chain of Glucagon Receptor (P47871 26-477): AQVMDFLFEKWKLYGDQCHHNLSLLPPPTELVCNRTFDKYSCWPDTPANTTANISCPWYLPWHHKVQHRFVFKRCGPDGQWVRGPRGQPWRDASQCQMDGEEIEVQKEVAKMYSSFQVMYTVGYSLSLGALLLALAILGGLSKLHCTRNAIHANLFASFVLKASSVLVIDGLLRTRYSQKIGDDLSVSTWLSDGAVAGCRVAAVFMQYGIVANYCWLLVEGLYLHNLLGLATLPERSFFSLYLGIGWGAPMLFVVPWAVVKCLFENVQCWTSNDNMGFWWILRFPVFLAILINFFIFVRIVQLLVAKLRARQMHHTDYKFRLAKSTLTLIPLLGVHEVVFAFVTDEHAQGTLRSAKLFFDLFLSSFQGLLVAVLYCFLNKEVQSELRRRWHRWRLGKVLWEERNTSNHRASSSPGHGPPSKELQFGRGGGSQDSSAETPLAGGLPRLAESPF
Chain of GLP-1 Receptor (P43220 24-463, species assumed): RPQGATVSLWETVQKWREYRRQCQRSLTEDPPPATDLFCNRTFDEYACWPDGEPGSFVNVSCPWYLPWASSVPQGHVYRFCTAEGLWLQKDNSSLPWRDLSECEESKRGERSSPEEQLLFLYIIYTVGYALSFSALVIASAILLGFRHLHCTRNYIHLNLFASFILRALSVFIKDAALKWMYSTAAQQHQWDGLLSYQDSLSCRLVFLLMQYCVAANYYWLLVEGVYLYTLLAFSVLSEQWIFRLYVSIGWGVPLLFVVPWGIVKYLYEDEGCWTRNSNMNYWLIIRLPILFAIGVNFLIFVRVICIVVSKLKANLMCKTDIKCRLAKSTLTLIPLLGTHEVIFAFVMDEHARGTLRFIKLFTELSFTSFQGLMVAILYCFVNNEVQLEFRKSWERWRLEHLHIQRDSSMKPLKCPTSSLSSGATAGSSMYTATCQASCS

Glucagon, Cys17PEG5K: Glucagon Cys17(1-29) reacted with methoxy poly(ethyleneglycol) maleimide avg. M.W.5000
Percent Soluble ([1]; pH 7): 94%

HSQGTFTSDYSKYLESRRAQDFVQWLMDT [D28, E15]
solubility relative to native glucagon ([1]; pH values of 5.5 and 7.0, FIGS. 3 & 4): superior solubility

CNC(=O)CC[C@H](NC(=O)[C@H](CO)NC(=O)[C@@H](N)Cc1c[nH]cn1)C(=O)NCC(=O)N[C@H](C(=O)N[C@@H](Cc1ccccc1)C(=O)N[C@H](C(=O)N[C@@H](CO)C(=O)N[C@@H](CC(=O)O)C(=O)N[C@@H](Cc1ccc(O)cc1)C(=O)N[C@@H](CO)C(=O)N[C@@H](CCCCN)C(=O)N[C@@H](Cc1ccc(O)cc1)C(=O)N[C@@H](CC(C)C)C(=O)N[C@@H](CC(=O)O)C(=O)NC(C)(C)C(=O)N[C@@H](CCCNC(=N)N)C(=O)N[C@@H](CCCNC(=N)N)C(=O)N[C@@H](C)C(=O)N[C@@H](C)C(=O)N[C@@H](CC(=O)O)C(=O)N[C@@H](Cc1ccccc1)C(=O)N[C@H](C(=O)N[C@@H](C)C(=O)N[C@@H](Cc1c[nH]c2ccccc12)C(=O)N[C@@H](CC(C)C)C(=O)N[C@@H](CCSC)C(=O)N[C@@H](CC(=O)O)C(=O)N[C@@H](CCC(=O)O)C(=O)O)C(C)C)[C@@H](C)O)[C@@H](C)O [SEQ ID NO: 70]
% activity* (Glucagon Receptor; Table 7): 55%

CSCC[C@H](NC(=O)[C@H](CC(C)C)NC(=O)[C@H](Cc1c[nH]c2ccccc12)NC(=O)[C@H](CCC(N)=O)NC(=O)[C@@H](NC(=O)[C@H](Cc1ccccc1)NC(=O)[C@H](CC(=O)O)NC(=O)[C@H](CCC(N)=O)NC(=O)[C@H](C)NC(=O)[C@H](CCCNC(=N)N)NC(=O)[C@H](CCCNC(=N)N)NC(=O)C(C)(C)NC(=O)[C@H](CC(=O)O)NC(=O)[C@H](CC(C)C)NC(=O)[C@H](Cc1ccc(O)cc1)NC(=O)[C@H](CCCCN)NC(=O)[C@H](CO)NC(=O)[C@H](Cc1ccc(O)cc1)NC(=O)[C@H](CC(=O)O)NC(=O)[C@H](CO)NC(=O)[C@@H](NC(=O)[C@H](Cc1ccccc1)NC(=O)[C@@H](NC(=O)CNC(=O)[C@H](CCC(N)=O)NC(=O)[C@H](CO)NC(=O)[C@@H](N)Cc1c[nH]cn1)[C@@H](C)O)[C@@H](C)O)C(C)C)C(=O)N[C@@H](CC(=O)O)C(=O)N[C@@H](CCC(=O)O)C(=O)O [AIB16/D28/E29 Glucagon] (H-HSQGTFTSDYSKYLD[Aib]RRAQDFVQWLMDE-OH; N-terminus and C-terminus assumed)
EC50 (Glucagon Receptor; EC50 at the glucagon receptor, Example 20): 0.08 nM

CCCC[C@H](NC(=O)[C@H](CC(C)C)NC(=O)[C@H](Cc1c[nH]c2ccccc12)NC(=O)[C@H](C)NC(=O)[C@@H](NC(=O)[C@H](Cc1ccccc1)NC(=O)[C@H](CCC(=O)O)NC(=O)[C@H](C)NC(=O)[C@H](C)NC(=O)[C@H](CCCNC(=N)N)NC(=O)[C@H](CCCNC(=N)N)NC(=O)[C@@H](NC(=O)[C@H](CC(=O)O)NC(=O)[C@H](CC(C)C)NC(=O)[C@H](Cc1ccc(O)cc1)NC(=O)[C@H](CCCCN)NC(=O)[C@H](CO)NC(=O)[C@H](Cc1ccc(O)cc1)NC(=O)[C@H](CC(=O)O)NC(=O)[C@H](CO)NC(=O)[C@@H](NC(=O)[C@H](Cc1ccccc1)NC(=O)[C@@H](NC(=O)CNC(=O)[C@H](CCCNC(C)=O)NC(=O)[C@H](CO)NC(=O)[C@@H](N)Cc1c[nH]cn1)[C@@H](C)O)[C@@H](C)O)[C@@H](C)O)C(C)C)C(=O)N[C@@H](CC(=O)O)C(=O)N[C@@H](CCC(=O)O)C(=O)O [SEQ ID NO: 67]
% activity* (Glucagon Receptor; Table 7): 7%

CC(=O)NCC[C@H](NC(=O)[C@H](CO)NC(=O)[C@@H](N)Cc1c[nH]cn1)C(=O)NCC(=O)N[C@H](C(=O)N[C@@H](Cc1ccccc1)C(=O)N[C@H](C(=O)N[C@@H](CO)C(=O)N[C@@H](CC(=O)O)C(=O)N[C@@H](Cc1ccc(O)cc1)C(=O)N[C@@H](CO)C(=O)N[C@@H](CCCCN)C(=O)N[C@@H](Cc1ccc(O)cc1)C(=O)N[C@@H](CC(C)C)C(=O)N[C@@H](CC(=O)O)C(=O)NC(C)(C)C(=O)N[C@@H](CCCNC(=N)N)C(=O)N[C@@H](CCCNC(=N)N)C(=O)N[C@@H](C)C(=O)N[C@H](C(=O)N[C@@H](CC(=O)O)C(=O)N[C@@H](Cc1ccccc1)C(=O)N[C@H](C(=O)N[C@H](C(=O)N[C@@H](Cc1c[nH]c2ccccc12)C(=O)N[C@@H](CC(C)C)C(=O)N[C@@H](CC(C)C)C(=O)N[C@@H](CC(=O)O)C(=O)N[C@@H](CCC(=O)O)C(=O)O)[C@@H](C)O)C(C)C)[C@@H](C)O)[C@@H](C)O)[C@@H](C)O [SEQ ID NO: 74] (H-HS[Dab](Ac)GTFTSDYSKYLD[Aib]RRATDFVTWLLDE-OH; N-terminus and C-terminus assumed)
% activity* (Glucagon Receptor; [2]): 46%

CCCCCCCCCCCCCCCC(=O)NCCCC[C@H](NC(=O)[C@H](CC(=O)O)NC(=O)[C@H](CO)NC(=O)[C@@H](NC(=O)[C@H](Cc1ccccc1)NC(=O)[C@@H](NC(=O)CNC(=O)[C@H](CCC(N)=O)NC(=O)[C@@H](CO)NC(=O)[C@@H](N)Cc1c[nH]cn1)[C@@H](C)O)[C@@H](C)O)C(=O)N[C@@H](CO)C(=O)N[C@@H](CCCCN)C(=O)N[C@@H](Cc1ccc(O)cc1)C(=O)N[C@@H](CC(C)C)C(=O)N[C@@H](CC(=O)O)C(=O)N[C@@H](CCC(=O)O)C(=O)N[C@@H](CCCNC(=N)N)C(=O)N[C@@H](CCCNC(=N)N)C(=O)N[C@@H](C)C(=O)N[C@@H](CCCCN)C(=O)N[C@@H](CC(=O)O)C(=O)N[C@@H](Cc1ccccc1)C(=O)N[C@H](C(=O)N[C@@H](CCC(N)=O)C(=O)N[C@@H](Cc1c[nH]c2ccccc12)C(=O)N[C@@H](CC(C)C)C(=O)N[C@@H](CCSC)C(=O)N[C@@H](CC(N)=O)C(=O)N[C@H](C(N)=O)[C@@H](C)O)C(C)C [Peptide dS2K10(C16)E16K20-Gluc Amide, HXQGTFTSDKSKYLDERRAKDFVQWLMNT-amide]
EC50 (GLP-1 Receptor): 0.041 nM

CC(=O)NCC[C@H](NC(=O)[C@H](CO)NC(=O)[C@@H](N)Cc1c[nH]cn1)C(=O)NCC(=O)N[C@H](C(=O)N[C@@H](Cc1ccccc1)C(=O)N[C@H](C(=O)N[C@@H](CO)C(=O)N[C@@H](CC(=O)O)C(=O)N[C@@H](Cc1ccc(O)cc1)C(=O)N[C@@H](CO)C(=O)N[C@@H](CCCCN)C(=O)N[C@@H](Cc1ccc(O)cc1)C(=O)N[C@@H](CC(C)C)C(=O)N[C@@H](CC(=O)O)C(=O)NC(C)(C)C(=O)N[C@@H](CCCNC(=N)N)C(=O)N[C@@H](CCCNC(=N)N)C(=O)N[C@@H](C)C(=O)N[C@@H](CO)C(=O)N[C@@H](CC(=O)O)C(=O)N[C@@H](Cc1ccccc1)C(=O)N[C@H](C(=O)N[C@@H](CO)C(=O)N[C@@H](Cc1c[nH]c2ccccc12)C(=O)N[C@@H](CC(C)C)C(=O)N[C@@H](CC(C)C)C(=O)N[C@@H](CC(=O)O)C(=O)N[C@@H](CCC(=O)O)C(=O)O)C(C)C)[C@@H](C)O)[C@@H](C)O [SEQ ID NO: 73] (H-HS[Dab](Ac)GTFTSDYSKYLD[Aib]RRASDFVSWLLDE-OH; N-terminus and C-terminus assumed)
% activity* (Glucagon Receptor; [2]): 54%

CSCC[C@H](NC(=O)[C@H](CC(C)C)NC(=O)[C@H](Cc1c[nH]c2ccccc12)NC(=O)[C@H](C)NC(=O)[C@@H](NC(=O)[C@H](Cc1ccccc1)NC(=O)[C@H](CC(=O)O)NC(=O)[C@H](C)NC(=O)[C@H](C)NC(=O)[C@H](CCCNC(=N)N)NC(=O)[C@H](CCCNC(=N)N)NC(=O)C(C)(C)NC(=O)[C@H](CC(=O)O)NC(=O)[C@H](CC(C)C)NC(=O)[C@H](Cc1ccc(O)cc1)NC(=O)[C@H](CCCCN)NC(=O)[C@H](CO)NC(=O)[C@H](Cc1ccc(O)cc1)NC(=O)[C@H](CC(=O)O)NC(=O)[C@H](CO)NC(=O)[C@@H](NC(=O)[C@H](Cc1ccccc1)NC(=O)[C@@H](NC(=O)CNC(=O)[C@H](CCNC(C)=O)NC(=O)[C@H](CO)NC(=O)[C@@H](N)Cc1c[nH]cn1)[C@@H](C)O)[C@@H](C)O)C(C)C)C(=O)N[C@@H](CC(=O)O)C(=O)N[C@@H](CCC(=O)O)C(=O)O [SEQ ID NO: 69]
% activity* (Glucagon Receptor; Table 7): 86%

CCCCCCCCCCCCCC(=O)NCCCC[C@H](NC(=O)[C@H](CC(=O)O)NC(=O)[C@H](CO)NC(=O)[C@@H](NC(=O)[C@H](Cc1ccccc1)NC(=O)[C@@H](NC(=O)CNC(=O)[C@H](CCC(N)=O)NC(=O)[C@@H](CO)NC(=O)[C@@H](N)Cc1c[nH]cn1)[C@@H](C)O)[C@@H](C)O)C(=O)N[C@@H](CO)C(=O)N[C@@H](CCCCN)C(=O)N[C@@H](Cc1ccc(O)cc1)C(=O)N[C@@H](CC(C)C)C(=O)N[C@@H](CC(=O)O)C(=O)N[C@@H](CCC(=O)O)C(=O)N[C@@H](CCCNC(=N)N)C(=O)N[C@@H](CCCNC(=N)N)C(=O)N[C@@H](C)C(=O)N[C@@H](CCCCN)C(=O)N[C@@H](CC(=O)O)C(=O)N[C@@H](Cc1ccccc1)C(=O)N[C@H](C(=O)N[C@@H](CCC(N)=O)C(=O)N[C@@H](Cc1c[nH]c2ccccc12)C(=O)N[C@@H](CC(C)C)C(=O)N[C@@H](CCSC)C(=O)N[C@@H](CC(N)=O)C(=O)N[C@H](C(N)=O)[C@@H](C)O)C(C)C [Peptide dS2K10(C14)E16K20-Gluc Amide, HXQGTFTSDKSKYLDERRAKDFVQWLMNT-amide]
EC50 (GLP-1 Receptor): 0.041 nM
